These results are taken from patent US20240400561A1, “NOVEL SUBSTITUTED SULFONYLUREA COMPOUNDS AS INHIBITORS OF INTERLEUKIN-1 ACTIVITY” (Viva Star Biosciences (Suzhou) Co., Ltd., priority 2021, published 2024).

The assay concerns the target T1, NLRP3 (Homo sapiens, UniProt Q96P20).
T1 construct: Seed THP-1 cells (5.56*10^5 cells/mL) containing 1.0 ug/mL LPS; endogenous in cells; host or cells: THP-1 cells
Put plainly: THP-1 cell assay (LPS priming, nigericin), IL1β release by HTRF; called pyroptosis assay, THP IC50. It is filed as cell-based. The settings on record: NLRP3 inhibitory activity; THP-1 cells, 1.0 ug/mL LPS, compound 3 hrs, nigericin 5 uM 1 hr, IL1β in supernatant. As for the experimental part:
The following method was used for compound screening. • 1. Seed THP-1 cells (5.56*10^5 cells/mL) containing 1.0 ug/mL LPS (SIGMA, L6529) in 45 uL RPMI 1640 medium (without FBS) into 384-well plate (Thermo Scientific, 164688). • 2. Add 5 uL compound (10 doses starting from 5 uM, 1:3 dilution) or vehicle (0.05% DMSO in medium) to the appropriate wells. • 3. Centrifuge the plates at 1000 rpm for 2 mins and incubate for 3 hrs at 37° C., 5% CO2. • 4. Add 5 uL nigericin (MEC, HY-100381) (final conc. 5 uM) to sample wells and positive control wells; add 5 uL RPMI 1640 medium to negative control wells. • 5. Centrifuge plates at 1000 rpm for 2 mins and incubate for 1 hr at 37° C., 5% CO2. • 6. At the end of the incubation period, centrifuge plates at 1000 rpm for 6 mins and transfer 8 uL supernatant into 384-well assay plates (PerkinElmer, 6008280). • 7. Add 8 ul RPMI 1640 medium into each well and spin down for 10 secs. • 8. Prepare the standard solutions and pre-mixed IL1β antibody solution of Human […] kits (PerkinElmer, 62HIL1BPEH) according to the instruction. • 9. Add 16 uL standard solutions into clear wells of 384-well assay plates. • 10. Add 4 uL pre-mixed IL1β antibody solution to all wells including sample wells, positive control wells, negative control wells and standard solutions wells. • 11. Seal the plates, spin down for 10 secs, incubation for overnight at RT and read on an HTRF® compatible reader (BMG LABTECH, PHERAstar FS). • 12. The concentrations of IL1β for treated wells are calculated by the standard curve. • 13. The IC50 data is fitted to a non-liner regression equation (log inhibitor vs. response—Variable slope four parameters)).
In general terms: In TR-FRET formats the signal depends on donor and acceptor labels being close together.

Usually IC50 stands for the concentration at which inhibition is half-maximal. Higher therefore signals weaker potency in that assay.

T1 sequence (Q96P20 whole entry): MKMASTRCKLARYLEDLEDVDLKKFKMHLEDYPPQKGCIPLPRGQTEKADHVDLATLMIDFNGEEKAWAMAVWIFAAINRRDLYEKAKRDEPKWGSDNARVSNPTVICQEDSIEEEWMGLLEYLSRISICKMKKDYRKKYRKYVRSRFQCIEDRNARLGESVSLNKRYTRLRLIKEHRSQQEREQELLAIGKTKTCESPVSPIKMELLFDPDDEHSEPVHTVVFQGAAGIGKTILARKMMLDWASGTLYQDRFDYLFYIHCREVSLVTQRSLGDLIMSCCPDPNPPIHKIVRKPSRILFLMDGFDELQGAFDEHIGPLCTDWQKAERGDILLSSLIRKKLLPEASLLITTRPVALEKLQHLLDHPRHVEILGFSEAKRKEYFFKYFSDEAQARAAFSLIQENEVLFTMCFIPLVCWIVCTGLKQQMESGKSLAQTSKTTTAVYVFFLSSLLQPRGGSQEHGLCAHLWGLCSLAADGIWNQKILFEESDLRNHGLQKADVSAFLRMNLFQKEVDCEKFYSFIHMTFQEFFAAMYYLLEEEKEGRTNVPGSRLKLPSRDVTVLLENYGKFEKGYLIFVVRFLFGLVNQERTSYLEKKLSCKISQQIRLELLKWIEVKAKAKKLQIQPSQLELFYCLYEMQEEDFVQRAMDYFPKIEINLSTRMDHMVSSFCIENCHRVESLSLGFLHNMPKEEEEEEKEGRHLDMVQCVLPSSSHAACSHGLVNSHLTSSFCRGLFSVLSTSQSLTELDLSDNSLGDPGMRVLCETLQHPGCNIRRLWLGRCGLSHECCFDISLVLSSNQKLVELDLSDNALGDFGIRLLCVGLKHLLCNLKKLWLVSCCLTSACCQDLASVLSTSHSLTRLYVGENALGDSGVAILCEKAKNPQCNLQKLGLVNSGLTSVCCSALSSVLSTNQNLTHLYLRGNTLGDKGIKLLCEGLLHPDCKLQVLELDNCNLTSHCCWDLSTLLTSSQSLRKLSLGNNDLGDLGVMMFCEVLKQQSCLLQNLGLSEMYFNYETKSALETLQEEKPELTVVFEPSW

In turn, `Cc1cc2c(c(NC(=O)NS(=O)(=O)C3CC(OC4CC4)C3)c1-c1ccn3nccc3c1)CCC2` (stereo not shown) [Example 75, 3-cyclopropoxy-N-((6-methyl-5-(pyrazolo[1,5-a]pyridin-5-yl)-2,3-dihydro-1H-inden-4-yl)carbamoyl)cyclobutane-1-sulfonamide] registered an IC50 of 30 to 300 nM.

On to `Cn1ccc2cc(-c3ccc4c(c3NC(=O)NS(=O)(=O)c3cc(C(C)(C)O)cs3)CCC4)cnc21` [Example 44, 4-(2-hydroxypropan-2-yl)—N-((5-(1-methyl-1H-pyrrolo[2,3-b]pyridin-5-yl)-2,3-dihydro-1H-inden-4-yl)carbamoyl)thiophene-2-sulfonamide], for which the half-inhibitory concentration (IC50) fell in the range of 30 to 300 nM. As to `Cc1cc2c(c(NC(=O)NS(=O)(=O)c3cnn(CC4CC4)c3)c1-c1ccc3cncn3c1)CCC2` [Example 20, 1-(cyclopropylmethyl)-N-((5-(imidazo[1,5-a]pyridin-6-yl)-6-methyl-2,3-dihydro-1H-inden-4-yl)carbamoyl)-1H-pyrazole-4-sulfonamide], the IC50 was in the range of 30 to 300 nM. Then `CC(C)(O)c1csc(S(=O)(=O)NC(=O)Nc2c(-c3ccc4nccn4c3)ccc3c2OCO3)c1` [Example 65, 4-(2-hydroxypropan-2-yl)-N-((5-(imidazo[1,2-a]pyridin-6-yl)benzo[d][1,3]dioxol-4-yl)carbamoyl)thiophene-2-sulfonamide], with 30 to 300 nM; and `Cc1cc2c(c(NC(=O)NS(=O)(=O)c3cncc(N(C)C4CCC4)c3)c1-c1ccn3nccc3c1)CCC2` [Example 36, 5-(cyclobutyl(methyl)amino)-N-((6-methyl-5-(pyrazolo[1,5-a]pyridin-5-yl)-2,3-dihydro-1H-inden-4-yl)carbamoyl)pyridine-3-sulfonamide], with 30 to 300 nM. Next, `CC(C)(O)c1csc(S(=O)(=O)NC(=O)Nc2c(-c3ccc4nncn4c3)ccc3c2CCC3)c1` [Example 61]: 300 to 1000 nM; `CC(C)(O)c1csc(S(=O)(=O)NC(=O)Nc2c3c(cc(Cl)c2-c2ccn4cncc4c2)CCC3)c1` [Example 71, N-((6-chloro-5-(imidazo[1,5-a]pyridin-7-yl)-2,3-dihydro-1H-inden-4-yl)carbamoyl)-4-(2-hydroxypropan-2-yl)thiophene-2-sulfonamide]: no more than 30 nM. Molecule `CC(C)(O)c1csc(S(=O)(=O)NC(=O)Nc2c(-c3ccn4ncnc4c3)ccc3c2CCC3)c1` [Example 53, N-((5-([1,2,4]triazolo[1,5-a]pyridin-7-yl)-2,3-dihydro-1H-inden-4-yl)carbamoyl)-4-(2-hydroxypropan-2-yl)thiophene-2-sulfonamide] showed an IC50 of no more than 30 nM. Then `Cc1cc2c(c(NC(=O)NS(=O)(=O)c3ccn(C4CC(O)C4)n3)c1-c1ccn3nccc3c1)CCC2` (stereo not shown) [Example 76, 1-(3-hydroxycyclobutyl)-N-((6-methyl-5-(pyrazolo[1,5-a]pyridin-5-yl)-2,3-dihydro-1H-inden-4-yl)carbamoyl)-1H-pyrazole-3-sulfonamide], with no more than 30 nM; and `CC(C)(O)c1csc(S(=O)(=O)NC(=O)Nc2c(-c3ccnc4c3ccn4C3CCOC3)ccc3c2CCC3)c1` (stereo not shown) [Example 58, 4-(2-hydroxypropan-2-yl)-N-((5-(1-(tetrahydrofuran-3-yl)-1H-pyrrolo[2,3-b]pyridin-4-yl)-2,3-dihydro-1H-inden-4-yl)carbamoyl)thiophene-2-sulfonamide], with 30 to 300 nM; and `N#Cc1cc2c(c(NC(=O)NS(=O)(=O)c3cnn(CC4CC4)c3)c1-c1ccn3cncc3c1)CCC2` [Example 13, N-((6-cyano-5-(imidazo[1,5-a]pyridin-7-yl)-2,3-dihydro-1H-inden-4-yl)carbamoyl)-1-(cyclopropylmethyl)-1H-pyrazole-4-sulfonamide], with no more than 30 nM. Consider `Cn1ccc2c(-c3ccc4c(c3NC(=O)NS(=O)(=O)c3cc(C(C)(C)O)cs3)CCC4)cncc21` [Example 47, 4-(2-hydroxypropan-2-yl)-N-((5-(1-methyl-1H-pyrrolo[2,3-c]pyridin-4-yl)-2,3-dihydro-1H-inden-4-yl)carbamoyl)thiophene-2-sulfonamide], for which the IC50 was 300 to 1000 nM. Next, `CC(C)(O)c1csc(S(=O)(=O)NC(=O)Nc2c(-c3ccn4ccnc4c3)ccc3c2CCC3)c1` [Example 42, 4-(2-hydroxypropan-2-yl)-N-((5-(imidazo[1,2-a]pyridin-7-yl)-2,3-dihydro-1H-inden-4-yl)carbamoyl)thiophene-2-sulfonamide]: no more than 30 nM.

Consider `Cc1cc2c(c(NC(=O)NS(=O)(=O)c3ccn(CC4CC4)n3)c1-c1ccn3nccc3c1)CCC2` [Example 10, 1-(cyclopropylmethyl)-N-((6-methyl-5-(pyrazolo[1,5-a]pyridin-5-yl)-2,3-dihydro-1H-inden-4-yl)carbamoyl)-1H-pyrazole-3-sulfonamide], for which the IC50 was no more than 30 nM. Then `Cc1cc2c(c(NC(=O)NS(=O)(=O)c3ccc(=O)n(CC4CC4)c3)c1-c1ccn3nccc3c1)CCC2` [Example 39, 1-(cyclopropylmethyl)-N-((6-methyl-5-(pyrazolo[1,5-a]pyridin-5-yl)-2,3-dihydro-1H-inden-4-yl)carbamoyl)-6-oxo-1,6-dihydropyridine-3-sulfonamide], with 30 to 300 nM. Next, `O=C(Nc1c2c(cc(Cl)c1-c1ccn3cnnc3c1)CCC2)NS(=O)(=O)c1ccn(C2CC2)n1` [Example 96, N-((5-([1,2,4]triazolo[4,3-a]pyridin-7-yl)-6-chloro-2,3-dihydro-1H-inden-4-yl)carbamoyl)-1-cyclopropyl-1H-pyrazole-3-sulfonamide]: no more than 30 nM. The molecule `Cc1cc2cc(-c3c(C)cc4c(c3NC(=O)NS(=O)(=O)c3ccn(C5CC5)n3)CCC4)ccn2n1` [Example 88, 1-cyclopropyl-N-((6-methyl-5-(2-methylpyrazolo[1,5-a]pyridin-5-yl)-2,3-dihydro-1H-inden-4-yl)carbamoyl)-1H-pyrazole-3-sulfonamide] displayed a half-maximal inhibitory concentration (IC50) of no more than 30 nM.

As to `CO[C@H](C)Cn1ccc(S(=O)(=O)NC(=O)Nc2c3c(cc(C)c2-c2ccn4nccc4c2)CCC3)n1` [Example 27, (R)-1-(2-methoxypropyl)-N-((6-methyl-5-(pyrazolo[1,5-a]pyridin-5-yl)-2,3-dihydro-1H-inden-4-yl)carbamoyl)-1H-pyrazole-3-sulfonamide], the IC50 is no more than 30 nM. Next, `CC(C)(O)c1csc(S(=O)(=O)NC(=O)Nc2c(-c3ccnc4c3ccn4C3CC3)ccc3c2CCC3)c1` [Example 49, N-((5-(1-cyclopropyl-1H-pyrrolo[2,3-b]pyridin-4-yl)-2,3-dihydro-1H-inden-4-yl)carbamoyl)-4-(2-hydroxypropan-2-yl)thiophene-2-sulfonamide]: 30 to 300 nM; `O=C(Nc1c(-c2cnc3ccnn3c2)ccc2c1CCC2)NS(=O)(=O)c1cnn(CC2CC2)c1` [Example 22, 1-(cyclopropylmethyl)-N-((5-(pyrazolo[1,5-a]pyrimidin-6-yl)-2,3-dihydro-1H-inden-4-yl)carbamoyl)-1H-pyrazole-4-sulfonamide]: greater than 2000 nM. Then `O=C(Nc1c(-c2ccn3nccc3c2)ccc2c1CCC2)NS(=O)(=O)c1cnn(CC2CC2)c1` [Example 7, 1-(cyclopropylmethyl)-N-((5-(pyrazolo[1,5-a]pyridin-5-yl)-2,3-dihydro-1H-inden-4-yl)carbamoyl)-1H-pyrazole-4-sulfonamide], with no more than 30 nM; and `Cc1cc2c(c(NC(=O)NS(=O)(=O)c3ccnc(C4CCC4)c3)c1-c1ccn3nccc3c1)CCC2` [Example 38, 2-cyclobutyl-N-((6-methyl-5-(pyrazolo[1,5-a]pyridin-5-yl)-2,3-dihydro-1H-inden-4-yl)carbamoyl)pyridine-4-sulfonamide], with 30 to 300 nM; and `O=C(Nc1c(-c2ccnc3[nH]ccc23)ccc2c1CCC2)NS(=O)(=O)c1cnn(CC2CC2)c1` [Example 5, N-((5-(1H-pyrrolo[2,3-b]pyridin-4-yl)-2,3-dihydro-1H-inden-4-yl)carbamoyl)-1-(cyclopropylmethyl)-1H-pyrazole-4-sulfonamide], with no more than 30 nM. Then `Cc1cc2c(c(NC(=O)NS(=O)(=O)c3cncc(OC4CCC4)c3)c1-c1ccn3nccc3c1)CCC2` [Example 35, 5-cyclobutoxy-N-((6-methyl-5-(pyrazolo[1,5-a]pyridin-5-yl)-2,3-dihydro-1H-inden-4-yl)carbamoyl)pyridine-3-sulfonamide], with no more than 30 nM; and `CN1CCC(n2ccc3c(-c4ccc5c(c4NC(=O)NS(=O)(=O)c4cc(C(C)(C)O)cs4)CCC5)ccnc32)C1` (stereo not shown) [Example 57, 4-(2-hydroxypropan-2-yl)-N-((5-(1-(1-methylpyrrolidin-3-yl)-1H-pyrrolo[2,3-b]pyridin-4-yl)-2,3-dihydro-1H-inden-4-yl)carbamoyl)thiophene-2-sulfonamide], with 300 to 1000 nM.
